Experimental data taken from the NIST ThermoML archive (doi:10.1021/je030215z).

Key:
[1] = 298.15 K; 101.33 kPa; Liquid
[2] = excess molar enthalpy (molar enthalpy of mixing); xn = mol fraction of the nth substance listed; details: 298.15 K, 101.33 kPa, Liquid, Flow calorimetry

CCCCCCCCCC [decane]
Details	mass density [kg/m3]
[1]	726.3

CCCCCCCCCCCC [dodecane]
Details	mass density [kg/m3]
[1]	745.32

CCCCCCC [heptane]
Details	mass density [kg/m3]
[1]	680.17

C=CCCCC [hex-1-ene]
Details	mass density [kg/m3]
[1]	668.73

C=CCCCC [hex-1-ene] + CCCCCCC
[2]
Details	excess molar enthalpy [kcal/mol]
x1 = 0.05	0.00266
x1 = 0.1	0.00507
x1 = 0.1499	0.00724
x1 = 0.1998	0.00898
x1 = 0.2496	0.0107
x1 = 0.2998	0.0121
x1 = 0.35	0.0131
x1 = 0.3984	0.0141
x1 = 0.4492	0.0146
x1 = 0.5005	0.0147
x1 = 0.5498	0.0147
x1 = 0.6	0.0143
x1 = 0.6496	0.0135
x1 = 0.6992	0.0126
x1 = 0.7497	0.0113
x1 = 0.8	0.00988
x1 = 0.8499	0.0079
x1 = 0.9	0.00559
x1 = 0.95	0.0028

C=CCCCC [hex-1-ene] + CCCCCCCC
[2]
Details	excess molar enthalpy [kcal/mol]
x1 = 0.05	0.00272
x1 = 0.1	0.00532
x1 = 0.15	0.0078
x1 = 0.2036	0.00995
x1 = 0.2496	0.0115
x1 = 0.3	0.0131
x1 = 0.3497	0.0143
x1 = 0.3998	0.0153
x1 = 0.45	0.0158
x1 = 0.5	0.0162
x1 = 0.5499	0.0161
x1 = 0.5994	0.0157
x1 = 0.65	0.015
x1 = 0.6998	0.014
x1 = 0.7501	0.0126
x1 = 0.8002	0.0108
x1 = 0.8499	0.00882
x1 = 0.9	0.00628
x1 = 0.95	0.00332

C=CCCCC [hex-1-ene] + CCCCCCCCCC
[2]
Details	excess molar enthalpy [kcal/mol]
x1 = 0.05	0.00385
x1 = 0.1	0.00726
x1 = 0.1503	0.0103
x1 = 0.2001	0.0129
x1 = 0.2482	0.0154
x1 = 0.2997	0.0174
x1 = 0.3504	0.019
x1 = 0.3999	0.0204
x1 = 0.4508	0.0211
x1 = 0.4994	0.0217
x1 = 0.5501	0.0217
x1 = 0.5996	0.0213
x1 = 0.6496	0.0204
x1 = 0.7004	0.019
x1 = 0.7495	0.0172
x1 = 0.7998	0.0149
x1 = 0.8501	0.0122
x1 = 0.9	0.00862
x1 = 0.95	0.00457

C=CCCCC [hex-1-ene] + CCCCCCCCCCCC
[2]
Details	excess molar enthalpy [kcal/mol]
x1 = 0.0501	0.00512
x1 = 0.0999	0.00975
x1 = 0.15	0.0136
x1 = 0.1999	0.0174
x1 = 0.2521	0.0208
x1 = 0.2994	0.0235
x1 = 0.3494	0.0259
x1 = 0.4001	0.0277
x1 = 0.4503	0.0287
x1 = 0.5001	0.0293
x1 = 0.5505	0.0294
x1 = 0.5998	0.029
x1 = 0.6501	0.0278
x1 = 0.6999	0.026
x1 = 0.7499	0.0234
x1 = 0.8001	0.02
x1 = 0.8503	0.0162
x1 = 0.8999	0.0117
x1 = 0.95	0.00626

CCCCCCCC [octane]
Details	mass density [kg/m3]
[1]	698.72

CCCCCCCCCCCCCC [tetradecane]
Details	mass density [kg/m3]
[1]	759.36

CCCCCCCCCCCCCC [tetradecane] + C=CCCCC
[2]
Details	excess molar enthalpy [kcal/mol]
x2 = 0.05	0.00618
x2 = 0.1001	0.0124
x2 = 0.1501	0.0179
x2 = 0.2003	0.0228
x2 = 0.2499	0.0271
x2 = 0.297	0.0305
x2 = 0.3497	0.0339
x2 = 0.4002	0.0363
x2 = 0.4498	0.0376
x2 = 0.5	0.0386
x2 = 0.5497	0.0387
x2 = 0.5998	0.038
x2 = 0.6495	0.0364
x2 = 0.6996	0.0339
x2 = 0.7502	0.0306
x2 = 0.7996	0.0264
x2 = 0.8498	0.0211
x2 = 0.8999	0.015
x2 = 0.95	0.00747
